Assay results taken from patent US20030129629A1, “Methods and compositions for the identification, assessment, prevention, and therapy of human cancers” (Millennium Pharmaceuticals, Inc., priority 2000, published 2003).

Test system: 60 cancer cell lines (NCI 60 cancer cell line series)
Assay: NCI-DTP in vitro cancer screen, sulforhodamine B (SRB) growth inhibition, 48 hour exposure
Assay type: cell-based, human
Outline: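 NCI-DTP panel of 60 cancer cell lines plated day 0 at line-specific densities, exposed from day 1 to compound at 5 ten-fold-spaced doses in duplicate wells. After 48 h, cell mass stained with sulforhodamine B; −log GI50 derived from dose–response curves, averaged, and classed Low, Medium or High sensitivity.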

## NC(=O)NO [Hydroxyurea]
Breast BT-549 CL5013
  classification of cell line as Low(1), Medium(2), High(3) sensitivity to compound: 1
Breast HS-578T CL5006
  classification of cell line as Low(1), Medium(2), High(3) sensitivity to compound: 2
Breast MCF7(I) CL5001
  classification of cell line as Low(1), Medium(2), High(3) sensitivity to compound: 2
Breast MCF7/ADRr CL5002
  classification of cell line as Low(1), Medium(2), High(3) sensitivity to compound: 2
Breast MDA-MB-231 CL5005
  classification of cell line as Low(1), Medium(2), High(3) sensitivity to compound: 1
Breast MDA-MB-435 CL5011
  classification of cell line as Low(1), Medium(2), High(3) sensitivity to compound: 1
Breast MDA-N CL5012
  classification of cell line as Low(1), Medium(2), High(3) sensitivity to compound: 1
Breast T-47D CL5014
  classification of cell line as Low(1), Medium(2), High(3) sensitivity to compound: 1
CNS SF-268 CL12014
  classification of cell line as Low(1), Medium(2), High(3) sensitivity to compound: 2
CNS SF-295 CL12015
  classification of cell line as Low(1), Medium(2), High(3) sensitivity to compound: 3
CNS SF-539 CL12016
  classification of cell line as Low(1), Medium(2), High(3) sensitivity to compound: 3
CNS SNB-19 CL12002
  classification of cell line as Low(1), Medium(2), High(3) sensitivity to compound: 1
CNS SNB-75(I) CL12005
  classification of cell line as Low(1), Medium(2), High(3) sensitivity to compound: 2
CNS U251(I) CL12009
  classification of cell line as Low(1), Medium(2), High(3) sensitivity to compound: 2
Colon COLO-250 CL4010
  classification of cell line as Low(1), Medium(2), High(3) sensitivity to compound: 1
Colon HCC-2998 CL4002
  classification of cell line as Low(1), Medium(2), High(3) sensitivity to compound: 2
Colon HCT-15 CL4015
  classification of cell line as Low(1), Medium(2), High(3) sensitivity to compound: 2
Colon HCT-116 CL4003
  classification of cell line as Low(1), Medium(2), High(3) sensitivity to compound: 2
Colon HT29(I) CL4001
  classification of cell line as Low(1), Medium(2), High(3) sensitivity to compound: 2
Colon KM12 CL4017
  classification of cell line as Low(1), Medium(2), High(3) sensitivity to compound: 2
Colon SW-620 CL4009
  classification of cell line as Low(1), Medium(2), High(3) sensitivity to compound: 2
Leukemia CCRF-CEM(I) CL7003
  classification of cell line as Low(1), Medium(2), High(3) sensitivity to compound: 3
Leukemia HL-60(I) CL7008
  classification of cell line as Low(1), Medium(2), High(3) sensitivity to compound: 3
Leukemia K562(I) CL7005
  classification of cell line as Low(1), Medium(2), High(3) sensitivity to compound: 2
Leukemia MOLT-4 CL7006
  classification of cell line as Low(1), Medium(2), High(3) sensitivity to compound: 3
Leukemia RPMI-8226(I) CL7010
  classification of cell line as Low(1), Medium(2), High(3) sensitivity to compound: 3
Leukemia SR CL7019
  classification of cell line as Low(1), Medium(2), High(3) sensitivity to compound: 3
Melanoma LOX IMVI CL10001
  classification of cell line as Low(1), Medium(2), High(3) sensitivity to compound: 2
Melanoma M14 CL10014
  classification of cell line as Low(1), Medium(2), High(3) sensitivity to compound: 2
Melanoma MALME-3M CL10002
  classification of cell line as Low(1), Medium(2), High(3) sensitivity to compound: 2
Melanoma SK-MEL-2 CL10005
  classification of cell line as Low(1), Medium(2), High(3) sensitivity to compound: 1
Melanoma SK-MEL-5 CL10007
  classification of cell line as Low(1), Medium(2), High(3) sensitivity to compound: 2
Melanoma SK-MEL-28 CL10008
  classification of cell line as Low(1), Medium(2), High(3) sensitivity to compound: 1
Melanoma UACC-62 CL10020
  classification of cell line as Low(1), Medium(2), High(3) sensitivity to compound: 3
Melanoma UACC-257 CL10021
  classification of cell line as Low(1), Medium(2), High(3) sensitivity to compound: 1
NSCLC A549/ATCC CL1004
  classification of cell line as Low(1), Medium(2), High(3) sensitivity to compound: 2
NSCLC EKVX CL1008
  classification of cell line as Low(1), Medium(2), High(3) sensitivity to compound: 1
NSCLC HOP-62 CL1026
  classification of cell line as Low(1), Medium(2), High(3) sensitivity to compound: 2
NSCLC HOP-92 CL1029
  classification of cell line as Low(1), Medium(2), High(3) sensitivity to compound: 2
NSCLC NCI-H23(I) CL1001
  sensitivity classification Low(1)/Medium(2)/High(3): 2
NSCLC NCI-H226 CL1013
  classification of cell line as Low(1), Medium(2), High(3) sensitivity to compound: 2
NSCLC NCI-H332M CL1017
  sensitivity classification Low(1)/Medium(2)/High(3): 1
NSCLC NCI-H460 CL1021
  sensitivity classification Low(1)/Medium(2)/High(3): 3
NSCLC NCI-H522 CL1003
  sensitivity classification Low(1)/Medium(2)/High(3): 2
Ovarian IGROV1 CL6010
  sensitivity classification Low(1)/Medium(2)/High(3): 2
Ovarian OVCAR-3 CL6001
  sensitivity classification Low(1)/Medium(2)/High(3): 2
Ovarian OVCAR-4 CL6002
  sensitivity classification Low(1)/Medium(2)/High(3): 1
Ovarian OVCAR-5 CL6003
  sensitivity classification Low(1)/Medium(2)/High(3): 2
Ovarian OVCAR-8 CL6005
  sensitivity classification Low(1)/Medium(2)/High(3): 2
Ovarian SK-OV-3 CL6011
  sensitivity classification Low(1)/Medium(2)/High(3): 1
Prostate DU-145 CL11003
  sensitivity classification Low(1)/Medium(2)/High(3): 2
Prostate PC-3(I) CL11001
  sensitivity classification Low(1)/Medium(2)/High(3): 2
Renal 786-0 CL9018
  sensitivity classification Low(1)/Medium(2)/High(3): 2
Renal A498 CL9013
  sensitivity classification Low(1)/Medium(2)/High(3): 2
Renal ACHN CL9023
  sensitivity classification Low(1)/Medium(2)/High(3): 3
Renal CAKI-1 CL9015
  sensitivity classification Low(1)/Medium(2)/High(3): 3
Renal RXF-393 CL9016
  sensitivity classification Low(1)/Medium(2)/High(3): 2
Renal SN12C CL9008
  sensitivity classification Low(1)/Medium(2)/High(3): 2
Renal TK10 CL9024
  sensitivity classification Low(1)/Medium(2)/High(3): 1
Renal UO-31 CL9004
  sensitivity classification Low(1)/Medium(2)/High(3): 2
